Results: PMC12388504, “Antiparasitic Effect of Polyphenols and Terpenes from Natural Products Against Trypanosoma cruzi and Leishmania mexicana” (Metabolites, 2025)
Where two headings read alike, the source gives them in different places.

Assays:
[1] = system: T. cruzi epimastigotes NINOA strain; assay: Anti-Trypanosoma cruzi activity, epimastigotes NINOA strain (MTT); assay type: cell-based; settings: for IC50: 48 h, read-out: T. cruzi IC50 NINOA
Method: (§1) Epimastigotes from A1 and the NINOA strains were used to evaluate the trypanocidal activity. Both strains were maintained in liver infusion tryptose (LIT) medium, supplemented with 10% heat-inactivated FBS and 100 U/mL of penicillin plus 100 μg/mL of streptomycin. They were preserved by transferring 1 × 10^6 parasites/mL into a new culture medium every week. […] All compounds were initially prepared at 10 mg/mL, using dimethyl sulfoxide (DMSO) 0.2% as diluent. […] T. cruzi epimastigotes (1 × 10^6/well) were cultured in 96-well microliter plates and incubated for 48 h at 28 °C with the drugs at different concentrations in a final volume of 200 μL. DMSO 0.2% was included as a negative control. […] All assays were carried out in triplicate. The IC50 values were determined by Probit analysis.

[2] = system: T. cruzi epimastigotes A1 strain; assay: Anti-Trypanosoma cruzi activity, epimastigotes A1 strain (MTT); assay type: cell-based; settings: for IC50: 48 h
Method: as §1

[3] = system: L. mexicana promastigotes MNYC/BZ/62/M379 (M379) strain; assay: Anti-Leishmania mexicana activity, promastigotes M379 reference strain (MTT); assay type: cell-based; settings: for IC50: 48 h, read-out: L. mexicana IC50 M379
Method: (§2) The IC50 was determined using the Probit statistical tool. Each sample was assayed in triplicate in three independent experiments.

[4] = system: L. mexicana promastigotes FCQEPS native isolate; assay: Anti-Leishmania mexicana activity, promastigotes FCQEPS native isolate (MTT); assay type: cell-based; settings: 48 h, read-out: L. mexicana IC50 FCQEPS
Method: as §2

[5] = Cytotoxic analysis against J774.2 macrophages (MTT); settings: mouse
Method: (§3) The assay was performed on mouse macrophages from the J774.2 cell line that were cultured in RPMI medium supplemented with 10% SFB, […] penicillin, […] streptomycin, and glutamine (2 mM) at 37 °C and in a 5% CO2 atmosphere. The medium was replaced at 2–3-day intervals. […] Cells in the presence of the maximum concentration of DMSO (0.2%) were included as a negative control; the metabolic activity of the cells was determined following the MTT method. The percentage of cell viability was calculated, and the half-maximal cytotoxic concentration (CC50) was determined by Probit analysis. Three independent assays were performed in triplicate each.

[6] = system: J774.2 macrophage cell line; assay: as above; settings: for cytotoxicity (in words): J774.2 macrophages
Method: as §3

T. cruzi = settings: cited from earlier work
[7] = system: Tulahuén strain of T. cruzi; set-up: method as in PMID 35698116; settings: in words; cited from earlier work
[8] = Trypanosoma cruzi, epimastigotes, NINOA strain, MTT
[9] = Trypanosoma cruzi, epimastigotes, A1 strain, MTT, read-out: T. cruzi IC50 A1
[10] = Leishmania mexicana, promastigotes, M379 strain, MTT
[11] = Leishmania mexicana, promastigotes, FCQEPS native isolate, MTT
[12] = promastigotes, FCQEPS native isolate, MTT
[13] = Trypanosoma cruzi, read-out: T. cruzi IC50 A1, epimastigotes, A1 strain, 48 h, MTT

| Structure (SMILES) | IC50 [1, 8] | IC50 [2, 9] | IC50 [3, 10] | IC50 [4, 11] | CC50 at 48 h ([5]; J774.2 macrophage cells) | other results |
| --- | --- | --- | --- | --- | --- | --- |
| CC(C)=CCCC(C)CCO (stereo not drawn) [Compound 11, β-citronellol] | 53.6 ± 3.3 µM | 21.54 ± 0.2 µM | 71 ± 1 µM | > 200 µM | > 200 µM | – |
| OCCc1ccccc1 [Compound 7, phenethyl alcohol] | 48.24 ± 0.3 µM | > 200 µM | 21.7 ± 1.7 µM | 42.24 ± 0.1 µM | 89.6 µM | cytotoxicity (in words) [6]: high cytotoxicity |
| C=C(C)[C@H]1CC=C(CO)CC1 [Compound 15] | > 200 µM | > 200 µM | 34.4 ± 2.8 µM | > 200 µM | > 200 µM | trypanocidal activity A1 strain (in words) ([2]; epimastigotes, A1 strain): no biological activity |
| O=C(Cn1ccnc1[N+](=O)[O-])NCc1ccccc1 [Bzn, Benznidazole, reference compound] | 39.08 ± 0.1 µM | 30.3 ± 0.03 µM | – | – | – | – |
| Oc1ccc(/C=C/c2cc(O)cc(O)c2)cc1 [resveratrol] | – | – | – | – | – | IC50 (T. cruzi; resveratrol): 40 µM |
| OCc1ccc2ccccc2c1 [Compound 5, 2-naphtalenemethanol] | 119 µM | > 200 µM | 40.1 ± 4.7 µM | 125 µM | > 200 µM | IC50 ([1]; epimastigotes, NINOA strain, MTT): 125 ± 3.2 µM; IC50 [4, 12]: > 200 µM |
| OCc1ccc2c(c1)OCO2 [Compound 6, piperonyl alcohol] | – | – | – | – | – | IC50 ([1]; Trypanosoma cruzi): > 200 µM; IC50 [2, 13]: > 200 µM; IC50 ([3]; Leishmania mexicana): 23.61 ± 0.2 µM; IC50 ([4]; Leishmania mexicana): 49.11 ± 0.1 µM; CC50 at 48 h [5]: 62.2 ± 3.2 µM |
| CC(C)=CCC/C(C)=C\CO [Compound 13, nerol] | – | – | – | – | – | IC50 ([1]; Trypanosoma cruzi): 58.3 ± 0.3 µM; IC50 [2, 13]: 125 µM; IC50 ([2]; read-out: T. cruzi IC50 A1, epimastigotes, A1 strain, MTT): 65.7 ± 3.1 µM; IC50 ([3]; Leishmania mexicana): 106 ± 6 µM; IC50 ([4]; Leishmania mexicana): > 200 µM; CC50 at 48 h [5]: > 200 µM |
| OC1CCCC1 [Compound 18, cyclopentyl alcohol] | > 200 µM | 10.83 ± 0.1 µM | 5.48 ± 0.1 µM | 125.4 ± 0.2 µM | 24.4 ± 3.2 µM | – |
| Cc1ccc(CO)cc1 [Compound 2, 4-methylbenzyl alcohol] | 51.85 ± 0.01 µM | 50.4 ± 1.8 µM | > 200 µM | > 200 µM | > 200 µM | – |
| CC1CCC(C(C)C)C(O)C1 (racemic) [dl-menthol] | – | – | – | – | – | IC50 (T. cruzi; dl-menthol): 173 µM |
| CC(C)[C@H]1CC[C@H](C)C[C@@H]1O [Compound 14, l-(-)-menthol] | 24.5 ± 0.7 µM | > 200 µM | 81.5 ± 4.7 µM | > 200 µM | > 200 µM | trypanocidal activity A1 strain (in words) ([2]; epimastigotes, A1 strain): no biological activity; trypanocidal activity against the Tulahuén strain [7]: null trypanocidal activity |
| OCC=Cc1ccccc1 [Compound 9, cinnamyl alcohol] | > 200 µM | 22.12 ± 0.2 µM | 12.1 ± 0.2 µM | 29.06 ± 0.1 µM | 47.35 ± 0.1 µM | trypanocidal activity NINOA strain (in words) ([1]; epimastigotes, NINOA strain): no biological activity; cytotoxicity (in words) [6]: high cytotoxicity |
| CC(C)=CCO [Compound 10, prenol] | 27.3 ± 1 µM | > 200 µM | > 200 µM | > 200 µM | > 200 µM | leishmanicidal activity M379 strain (in words) ([3]; promastigotes, M379 strain): did not have leishmanicidal activity |
| COc1ccc(CCO)cc1 [Compound 8, 4-methoxyphenethyl alcohol] | > 200 µM | > 200 µM | 52.08 ± 0.5 µM | > 200 µM | > 200 µM | trypanocidal activity NINOA strain (in words) ([1]; epimastigotes, NINOA strain): no biological activity |
| CC1=CC[C@@H](C(C)(C)O)CC1 [Compound 16, α-terpineol] | > 200 µM | 14 ± 0.2 µM | 14 ± 0.2 µM | 75.57 ± 0.03 µM | – | CC50 at 48 h [5]: 63.4 ± 0.9 µM |
| OCc1ccccc1 [Compound 1, benzyl alcohol] | > 200 µM | 62.28 ± 0.2 µM | > 200 µM | 104 ± 0.3 µM | 26.5 ± 2.1 µM | – |
| CC(C)=CCC/C(C)=C/CO [Compound 12, geraniol] | 41 ± 1.2 µM | 125 ± 5.5 µM | 57 ± 5.1 µM | > 200 µM | – | CC50 at 48 h [5]: > 200 µM |
| Cc1ccccc1CO [Compound 3, 2-methylbenzyl alcohol] | > 200 µM | > 200 µM | 14.2 ± 0.2 µM | – | 64.2 ± 0.2 µM | cytotoxicity (in words) [6]: high cytotoxicity |
| CNC[C@H](O)[C@@H](O)[C@H](O)[C@H](O)CO.[O]=[Sb](=[O])[OH] [Glu, Glucantime, reference compound] | – | – | – | – | – | IC50 ([3]; promastigotes, M379 strain, MTT): > 200 µM; IC50 [4, 12]: 134 ± 4.3 µM; CC50 ([6]; read-out: Cytotoxicity CC50 J774.2, mouse macrophages J774.2, 48 h, MTT): > 273 µM |
| CC1CS(=O)(=O)CCN1/N=C/c1ccc([N+](=O)[O-])o1 (stereo not shown) [Nfx, Nifurtimox, reference compound] | 19.3 ± 0.1 µM | 7.09 ± 0.1 µM | – | – | – | – |
